The text below walks through data of ChEMBL document CHEMBL3272271, “Folate antagonists. 13. 2,4-Diamino-6-](alpha,alpha,alpha-trifluoro-m-tolyl)thio]quinazoline and related 2,4-diamino-6-[(phenyl- and naphthyl)thio]quinazolines, a unique class of antimetabolites with extraordinary antimalarial and antibacterial effects” (J Med Chem, 1978).

Converted amounts (≈) assume the structure as drawn. The source made the active and inactive calls. The calls are words filed in the database; no cut-off is given here. A value given as a limit tells only on which side of the number the result lay.

One experiment concerns Enterococcus faecalis. The experiment in a line: Antibacterial activity against Streptococcus faecalis MGH-2 by gradient plate test.
Conditions: not given
Type of experiment: functional.
`Nc1nc(N)c2cc(Sc3cccc(Cl)c3)ccc2n1` displayed a minimal inhibitory concentration (MIC) of 10 µg/mL (≈ 33 µM).
Same read-out and setting: for `Nc1nc(N)c2cc(Sc3ccccc3Cl)ccc2n1` the value was below 0.25 µg/mL.
In turn, `COc1cccc(Sc2ccc3nc(N)nc(N)c3c2)c1` registered an MIC below 0.25 µg/mL.

For a further experiment, the system named is Staphylococcus aureus. Briefly: Antibacterial activity against Staphylococcus aureus UC-96 by gradient plate test. Type of experiment: functional.
Conditions: not given
`Nc1nc(N)c2cc(Sc3cccc(Cl)c3)ccc2n1` showed an MIC of 2.5 µg/mL (≈ 8.26 µM).
Regarding `Nc1nc(N)c2cc(Sc3ccccc3Cl)ccc2n1`, the MIC was below 0.25 µg/mL.
On the same count and under the same terms, for `COc1cccc(Sc2ccc3nc(N)nc(N)c3c2)c1` the value was below 0.25 µg/mL.

The subject of another experiment is Staphylococcus aureus. The experiment in a line: Antibacterial activity against drug-resistant Staphylococcus aureus S18713 by gradient plate test. It is filed as functional.
Conditions: not given
For the compound `Nc1nc(N)c2cc(Sc3cccc(Cl)c3)ccc2n1`, the MIC is 5 µg/mL (≈ 16.5 µM).
In turn, `Nc1nc(N)c2cc(Sc3ccccc3Cl)ccc2n1` displayed a minimum inhibitory concentration (MIC) below 0.25 µg/mL.
Still for that read-out and setting: for `COc1cccc(Sc2ccc3nc(N)nc(N)c3c2)c1` the value was below 0.25 µg/mL.

The test system of a further experiment is Pseudomonas aeruginosa. The experiment in a line: Antibacterial activity against Pseudomonas aeruginosa 28 by gradient plate test. It is filed as functional.
Conditions: not given
The compound `Nc1nc(N)c2cc(Sc3cccc(Cl)c3)ccc2n1` returned an MIC above 25 µg/mL.
Still for that read-out and setting: for `Nc1nc(N)c2cc(Sc3ccccc3Cl)ccc2n1` the value was above 25 µg/mL; for `COc1cccc(Sc2ccc3nc(N)nc(N)c3c2)c1`, above 25 µg/mL.

A further experiment deals with Escherichia coli. Briefly: Antibacterial activity against Escherichia coli Vogel by gradient plate test.
Conditions: not given
Type of experiment: functional.
The compound `Nc1nc(N)c2cc(Sc3cccc(Cl)c3)ccc2n1` returned an MIC of 10 µg/mL (≈ 33 µM).
On to `Nc1nc(N)c2cc(Sc3ccccc3Cl)ccc2n1`, for which the MIC was below 0.25 µg/mL.
Consider `COc1cccc(Sc2ccc3nc(N)nc(N)c3c2)c1`, for which the MIC was below 0.25 µg/mL.

For the next experiment, the system named is Shigella sonnei. Briefly: Antibacterial activity against Shigella sonnei C-10 by gradient plate test. It is filed as functional.
Conditions: not given
In turn, `Nc1nc(N)c2cc(Sc3cccc(Cl)c3)ccc2n1` came in with an MIC of 20 µg/mL (≈ 66.1 µM).
Compound `Nc1nc(N)c2cc(Sc3ccccc3Cl)ccc2n1` yielded an MIC of 2 µg/mL (≈ 6.61 µM).
For `COc1cccc(Sc2ccc3nc(N)nc(N)c3c2)c1`, the MIC is 1 µg/mL (≈ 3.35 µM).

For another experiment, the system named is Mycobacterium tuberculosis. The experiment in a line: Antibacterial activity against Mycobacterium tuberculosis H37Ra by gradient plate test. Type of experiment: functional.
Conditions: not given
With `Nc1nc(N)c2cc(Sc3cccc(Cl)c3)ccc2n1`, the MIC is above 25 µg/mL.

In a further experiment the test system is Plasmodium berghei. Briefly: Antimalarial activity against Plasmodium berghei infected in mouse assessed as increase in mean survival days of host at 320 mg/kg, sc administered 72 hrs after infection relative to control. It is filed as functional. Particulars: route subcutaneous.
Take `Nc1nc(N)c2cc(Sc3cccc(Cl)c3)ccc2n1`: the MST worked out at 20.9 days.
Same read-out and setting: for `Nc1nc(N)c2cc(Sc3ccccc3Cl)ccc2n1` the value was 18.9 days; for `COc1cccc(Sc2ccc3nc(N)nc(N)c3c2)c1`, 12.2 days.

The subject of a further experiment is Plasmodium berghei. The experiment in a line: Antimalarial activity against Plasmodium berghei infected in mouse assessed as increase in mean survival days of host at 160 mg/kg, sc administered 72 hrs after infection relative to control. It is filed as functional. Particulars: route subcutaneous.
Regarding `Nc1nc(N)c2cc(Sc3cccc(Cl)c3)ccc2n1`, the MST was 4.9 days.
In the case of `Nc1nc(N)c2cc(Sc3ccccc3Cl)ccc2n1`, the MST was determined as 10.9 days.
The same measure, in the same setting: for `COc1cccc(Sc2ccc3nc(N)nc(N)c3c2)c1` the value was 11.7 days.

A further experiment relates to Plasmodium berghei. Briefly: Antimalarial activity against Plasmodium berghei infected in mouse assessed as increase in mean survival days of host at 80 mg/kg, sc administered 72 hrs after infection relative to control. Type of experiment: functional. The note with it: route subcutaneous.
In the case of `Nc1nc(N)c2cc(Sc3cccc(Cl)c3)ccc2n1`, the MST was 4.3 days.
`Nc1nc(N)c2cc(Sc3ccccc3Cl)ccc2n1`: the MST worked out at 8.1 days.
Take `COc1cccc(Sc2ccc3nc(N)nc(N)c3c2)c1`: the MST was 8.3 days.

The test system of another experiment is Plasmodium berghei. The experiment in a line: Antimalarial activity against Plasmodium berghei infected in mouse assessed as increase in mean survival days of host at 40 mg/kg, sc administered 72 hrs after infection relative to control. It is filed as functional. Particulars: route subcutaneous.
With `Nc1nc(N)c2cc(Sc3cccc(Cl)c3)ccc2n1`, the MST came out at 3.5 days.
Same read-out and setting: for `Nc1nc(N)c2cc(Sc3ccccc3Cl)ccc2n1` the value was 0.5 days; for `COc1cccc(Sc2ccc3nc(N)nc(N)c3c2)c1`, 5.7 days.

The next experiment relates to Plasmodium berghei. The experiment in a line: Antimalarial activity against Plasmodium berghei infected in mouse assessed as increase in mean survival days of host at 20 mg/kg, sc administered 72 hrs after infection relative to control. Type of experiment: functional. The note with it: route subcutaneous.
As to `Nc1nc(N)c2cc(Sc3cccc(Cl)c3)ccc2n1`, the MST was found to be 0.5 days.
In the case of `Nc1nc(N)c2cc(Sc3ccccc3Cl)ccc2n1`, the MST was found to be 0.5 days.
Take `COc1cccc(Sc2ccc3nc(N)nc(N)c3c2)c1`: the MST is 1.5 days.

A further experiment concerns Plasmodium berghei. Briefly: Antimalarial activity against Plasmodium berghei infected in mouse assessed as increase in mean survival days of host at 10 mg/kg, sc administered 72 hrs after infection relative to control. Type of experiment: functional. The note with it: route subcutaneous.
As to `Nc1nc(N)c2cc(Sc3cccc(Cl)c3)ccc2n1`, the MST worked out at 0.5 days.
On the same count and under the same terms, for `Nc1nc(N)c2cc(Sc3ccccc3Cl)ccc2n1` the value was 0.3 days; for `COc1cccc(Sc2ccc3nc(N)nc(N)c3c2)c1`, 0.3 days.

Another experiment has as its system Plasmodium berghei. Briefly: Antimalarial activity against Plasmodium berghei infected in mouse assessed as increase in mean survival days of host at 5 mg/kg, sc administered 72 hrs after infection relative to control. Type of experiment: functional. The note with it: route subcutaneous.
In the case of `Nc1nc(N)c2cc(Sc3ccccc3Cl)ccc2n1`, the MST was determined as 0.3 days.

In another experiment the test system is Plasmodium berghei. Briefly: Antimalarial activity against Plasmodium berghei infected in mouse assessed as disease cure from parasite infection at 640 mg/kg, sc administered 72 hrs after infection. It is filed as functional, organism-based. Also on record: dose 640 mg/kg.
Conditions: not given
With `Nc1nc(N)c2cc(Sc3cccc(Cl)c3)ccc2n1`, the result was Active.
The same measure, in the same setting: for `COc1cccc(Sc2ccc3nc(N)nc(N)c3c2)c1` the value was “Active”.

The subject of another experiment is Plasmodium berghei. The experiment in a line: Antimalarial activity against Plasmodium berghei infected in mouse assessed as disease cure from parasite infection at 320 mg/kg, sc administered 72 hrs after infection. It is filed as functional, organism-based. Also on record: dose 320 mg/kg.
Conditions: not given
On to `Nc1nc(N)c2cc(Sc3cccc(Cl)c3)ccc2n1`, for which the outcome was Active.
Take `Nc1nc(N)c2cc(Sc3ccccc3Cl)ccc2n1`: the outcome was Active.
Take `COc1cccc(Sc2ccc3nc(N)nc(N)c3c2)c1`: the result was Active.

In the next experiment the test system is Plasmodium berghei. Briefly: Antimalarial activity against Plasmodium berghei infected in mouse assessed as disease cure from parasite infection at 160 mg/kg, sc administered 72 hrs after infection.
Conditions: not given
It is filed as functional, organism-based. The arrangement: dose 160 mg/kg.
For `Nc1nc(N)c2cc(Sc3ccccc3Cl)ccc2n1`, the result was Active.

The subject of a further experiment is Plasmodium gallinaceum. The experiment in a line: Antimalarial activity against trophozoite-induced Plasmodium gallinaceum infected in white leghorn chicken assessed as increase in mean survival days of host at 320 mg/kg, sc administered 72 hrs after infection relative to control. The note with it: route subcutaneous. Type of experiment: functional.
Take `Nc1nc(N)c2cc(NCc3ccc(Cl)c(Cl)c3)ccc2n1`: the MST worked out at 16.6 days.
On to `Nc1nc(N)c2cc(Sc3ccccc3Cl)ccc2n1`, for which the MST amounted to 20.8 days.

The next experiment concerns Plasmodium gallinaceum. Briefly: Antimalarial activity against trophozoite-induced Plasmodium gallinaceum infected in white leghorn chicken assessed as increase in mean survival days of host at 160 mg/kg, sc administered 72 hrs after infection relative to control. It is filed as functional. Particulars: route subcutaneous.
`Nc1nc(N)c2cc(NCc3ccc(Cl)c(Cl)c3)ccc2n1`: the MST was 15.3 days.
Same read-out and setting: for `Nc1nc(N)c2cc(Sc3ccccc3Cl)ccc2n1` the value was 19.8 days.

Another experiment concerns Plasmodium gallinaceum. Briefly: Antimalarial activity against trophozoite-induced Plasmodium gallinaceum infected in white leghorn chicken assessed as increase in mean survival days of host at 80 mg/kg, sc administered 72 hrs after infection relative to control. It is filed as functional. Particulars: route subcutaneous.
As for `Nc1nc(N)c2cc(NCc3ccc(Cl)c(Cl)c3)ccc2n1`, the MST turned out to be 12.9 days.
The same measure, in the same setting: for `Nc1nc(N)c2cc(Sc3ccccc3Cl)ccc2n1` the value was 10.2 days.

The subject of the next experiment is Plasmodium gallinaceum. The experiment in a line: Antimalarial activity against trophozoite-induced Plasmodium gallinaceum infected in white leghorn chicken assessed as increase in mean survival days of host at 40 mg/kg, sc administered 72 hrs after infection relative to control. It is filed as functional. Particulars: route subcutaneous.
With `Nc1nc(N)c2cc(NCc3ccc(Cl)c(Cl)c3)ccc2n1`, the MST stood at 12.1 days.
The same measure, in the same setting: for `Nc1nc(N)c2cc(Sc3ccccc3Cl)ccc2n1` the value was 7.6 days.

The next experiment concerns Plasmodium gallinaceum. Briefly: Antimalarial activity against trophozoite-induced Plasmodium gallinaceum infected in white leghorn chicken assessed as increase in mean survival days of host at 20 mg/kg, sc administered 72 hrs after infection relative to control. It is filed as functional. Particulars: route subcutaneous.
Take `Nc1nc(N)c2cc(NCc3ccc(Cl)c(Cl)c3)ccc2n1`: the MST was 7 days.
In the case of `Nc1nc(N)c2cc(Sc3ccccc3Cl)ccc2n1`, the MST amounted to 6 days.

A further experiment has as its system Plasmodium gallinaceum. Briefly: Antimalarial activity against trophozoite-induced Plasmodium gallinaceum infected in white leghorn chicken assessed as increase in mean survival days of host at 10 mg/kg, sc administered 72 hrs after infection relative to control. It is filed as functional. The note with it: route subcutaneous.
As to `Nc1nc(N)c2cc(NCc3ccc(Cl)c(Cl)c3)ccc2n1`, the MST is 2.2 days.
In the case of `Nc1nc(N)c2cc(Sc3ccccc3Cl)ccc2n1`, the MST turned out to be 0 days.
